According to ChEMBL document CHEMBL1201862, “PubChem BioAssay data set” (2004):
Active and inactive are the calls of the source.

What was measured:
[1] = target: Melanocortin receptor 4 (Homo sapiens, UniProt P32245); assay: inhibitors of MC4R cAMP signaling – cell-based, TR-FRET, biased antagonists, dose response (AID 602298); assay type: functional;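 further: antagonist potency against agonist-stimulated cAMP production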
[2] = loss of viability in HepG2 cells – cell-based, CellTiter-Glo, cherry-picked, cytotoxicity control for Shn3 inhibitor project, dose response (AID 624134); assay type: functional
[3] = system: BJ; assay: BJ-TERT fibroblast viability loss – cell-based, RAS-independent, luminescence, dose response (AID 1933); assay type: functional; conditions: Homo sapiens
[4] = system: BJ; assay: BJ-TERT-LT-ST fibroblast viability loss – cell-based, RAS-independent, luminescence, dose response (AID 1935); assay type: functional; conditions: Homo sapiens;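 further: BJ fibroblasts immortalized with TERT plus LT and ST oncogenes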
[5] = target: T1, Microphthalmia-associated transcription factor (Homo sapiens, UniProt O75030); assay: reducers of TRPM1 reporter luminescence, concentration series – cell-based, SK-MEL-5, cherry-picked, set 3, MITF inhibitor project, dose response (AID 493073); assay type: functional;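 further: SK-MEL-5 melanoma cells with luciferase driven by the MITF target TRPM1 promoter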
T1 sequence (O75030 whole entry): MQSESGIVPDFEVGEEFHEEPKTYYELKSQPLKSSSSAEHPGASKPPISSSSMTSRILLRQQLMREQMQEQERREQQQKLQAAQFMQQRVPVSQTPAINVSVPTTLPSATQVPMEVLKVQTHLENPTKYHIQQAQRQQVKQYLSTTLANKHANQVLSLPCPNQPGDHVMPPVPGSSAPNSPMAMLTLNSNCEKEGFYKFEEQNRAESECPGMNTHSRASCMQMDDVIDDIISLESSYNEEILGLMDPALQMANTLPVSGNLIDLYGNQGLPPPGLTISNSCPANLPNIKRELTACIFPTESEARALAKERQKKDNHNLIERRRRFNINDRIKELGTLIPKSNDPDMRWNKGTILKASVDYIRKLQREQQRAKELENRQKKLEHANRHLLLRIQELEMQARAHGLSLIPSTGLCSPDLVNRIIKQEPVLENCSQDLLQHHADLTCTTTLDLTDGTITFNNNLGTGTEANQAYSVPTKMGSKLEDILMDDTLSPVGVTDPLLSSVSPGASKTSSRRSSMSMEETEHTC

[6] = system: Jurkat; assay: blockers of NF-kB activation in T cells – Jurkat, luciferase reporter, luminescence, B- and T-cell, dose response (AID 489004); assay type: functional, cell-based; conditions: Homo sapiens;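 further: NF-kB luciferase reporter Jurkat cells stimulated with PMA plus ionomycin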
[7] = reduction of Shn3 3'UTR-driven luciferase in osteoblasts – cell-based, Clone20 osteoblasts, firefly luciferase, cherry-picked, dose response (AID 624132); assay type: functional;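 further: firefly luciferase luminescence from reporter carrying the Shn3 3'UTR in osteoblasts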
[8] = non-specific 3'UTR reporter inhibition in Clone20-Shn3RL – cell-based, Renilla luciferase, cherry-picked, counter-screen for Shn3 inhibitor project, dose response (AID 624133); assay type: functional
[9] = system: BJ; assay: cells; assay type: functional, cell-based; conditions: Homo sapiens
[10] = reduced cellular PGC1a acetyl-lysine signal – cell-based, cherry-picked samples, dose response (AID 720514); assay type: functional;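 further: potency may reflect raised or lowered acetylation signal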
[11] = cAMP pathway inhibition in counterscreen cell line – TR-FRET cAMP detection, counter-screen for MC4R biased antagonist project, dose response (AID 602305); assay type: functional, cell-based;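 further: U2OS cells stimulated with forskolin near its EC80 as the cAMP inducer; potency is for inhibition of forskolin-stimulated cAMP signaling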
[12] = activation of miR-122 Renilla sensor silencing – cell-based, Huh7 psiCHECK-miR122, Renilla luciferase, cherry-picked, dose response (AID 651956); assay type: functional;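 further: huh7 hepatoma cells stably carrying a psiCHECK-2 miR-122 sensor plasmid; renilla luciferase signal reporting endogenous miR-122 activity after 48 h compound exposure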
[13] = general mammalian cell viability loss – inhibitor set, cherry-pick, set 2, cytotoxicity control for miR-122 modulator project, dose response (AID 720697); assay type: functional, cell-based
[14] = DRD fibroblast viability loss – cell-based, non-viral oncogenic, luminescence, dose response (AID 1934); assay type: functional; conditions: Homo sapiens
[15] = HEK-293T viability loss, compound-treated – cell-based, uHTS hits, cytotoxicity control for B/T-cell NF-kB inhibitor project, dose response (AID 489019); assay type: functional;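 further: IC50 reflects cytotoxicity as loss of cell viability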
[16] = general mammalian cell viability loss – activator set, cherry-pick, cytotoxicity control for miR-122 modulator project, dose response (AID 720690); assay type: functional, cell-based;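 further: HEK293T human cells scored for general mammalian cytotoxicity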
[17] = system: A-375; assay: proliferation inhibition in MITF-low A375 cells – cell-based, cherry-pick samples, set 2, counter-screen for MITF modulator project, dose response (AID 540335); assay type: functional; conditions: Homo sapiens
[18] = target: Lysine-specific demethylase 4A (Homo sapiens, UniProt O75164); assay: inhibition of JMJD2A H3K9me3 demethylation – biochemical, DELFIA europium, cherry-picked samples, selectivity assay for GASC-1 inhibitor project, dose response (AID 488840)
[19] = target: T2, Tyrosine-protein phosphatase non-receptor type 22 (Homo sapiens, UniProt Q9Y2R2); assay: SAR LYP1 Fluorescent Assay using OMFP substrate for In Vitro dose response studies - Set 3. [Related pubchem assays (depositor defined):AID1779, AID1784, AID2140, AID2686]; assay type: functional
[20] = target: T3, Tyrosine-protein phosphatase non-receptor type 7 (Homo sapiens, UniProt P35236); assay: inhibition of hematopoietic tyrosine phosphatase HePTP – biochemical, set 2, SAR follow-up (AID 449736); assay type: functional
[21] = target: T4, Dual specificity protein phosphatase 3 (Homo sapiens, UniProt P51452); assay: SAR VHR1 Fluorescent Assay for In Vitro dose response studies Set 2. [Related pubchem assays (depositor defined):AID1654, AID1661, AID1878]; assay type: functional
[22] = target: T2, Tyrosine-protein phosphatase non-receptor type 22; assay: inhibition of lymphoid tyrosine phosphatase LYP – biochemical, pCAP fluorogenic substrate, fluorescence, set 3, SAR follow-up (AID 449727); assay type: functional
[23] = target: T3, Tyrosine-protein phosphatase non-receptor type 7; assay: redox-active compounds inhibiting HePTP phosphatase – biochemical, fluorescence, mechanism study (AID 2068); assay type: functional
[24] = target: Tyrosine-protein phosphatase non-receptor type 12 (Homo sapiens, UniProt Q05209); assay: SAR Selectivity Analysis of small molecule inhibitors of PEST using pCAP in a fluorescence assay. [Related pubchem assays (depositor defined):AID1779, AID1784, AID2135]; assay type: functional
[25] = target: Dual specificity protein phosphatase 6 (Rattus norvegicus, UniProt Q64346); assay type: functional;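 further: confirmatory in vitro dose-response testing of MKP-3 inhibition; recombinant His-tagged MKP-3 made in E. coli BL21 with OMFP substrate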
[26] = target: Phospholipase D2 (Homo sapiens, UniProt O14939); assay: cellular phospholipase D2 inhibition IC50 – cell-based, dose response (AID 602147); assay type: functional;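 further: cellular assay in HEK293 cells overexpressing GFP-tagged PLD2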
[27] = target: T4, Dual specificity protein phosphatase 3; assay: SAR VHR1 Fluorescent Assay for In Vitro dose response studies Set 3. [Related pubchem assays (depositor defined):AID1654, AID1661, AID1878]; assay type: functional

T3 sequence (P35236 whole entry): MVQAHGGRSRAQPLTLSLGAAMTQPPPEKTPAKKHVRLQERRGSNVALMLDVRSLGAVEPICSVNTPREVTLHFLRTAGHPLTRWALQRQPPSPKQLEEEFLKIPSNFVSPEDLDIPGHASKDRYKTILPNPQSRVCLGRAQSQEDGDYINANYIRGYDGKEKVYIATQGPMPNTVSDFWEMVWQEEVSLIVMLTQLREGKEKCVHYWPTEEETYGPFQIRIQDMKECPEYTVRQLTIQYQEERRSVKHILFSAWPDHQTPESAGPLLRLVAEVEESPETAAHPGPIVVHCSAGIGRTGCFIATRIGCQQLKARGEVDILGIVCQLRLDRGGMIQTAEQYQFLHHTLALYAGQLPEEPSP
T4 sequence (P51452 whole entry): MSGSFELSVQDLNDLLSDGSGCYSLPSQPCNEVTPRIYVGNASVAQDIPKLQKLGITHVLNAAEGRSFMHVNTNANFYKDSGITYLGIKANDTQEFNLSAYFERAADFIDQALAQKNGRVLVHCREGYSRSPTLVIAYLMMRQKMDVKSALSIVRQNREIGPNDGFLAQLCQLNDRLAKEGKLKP
T2 sequence (Q9Y2R2 whole entry): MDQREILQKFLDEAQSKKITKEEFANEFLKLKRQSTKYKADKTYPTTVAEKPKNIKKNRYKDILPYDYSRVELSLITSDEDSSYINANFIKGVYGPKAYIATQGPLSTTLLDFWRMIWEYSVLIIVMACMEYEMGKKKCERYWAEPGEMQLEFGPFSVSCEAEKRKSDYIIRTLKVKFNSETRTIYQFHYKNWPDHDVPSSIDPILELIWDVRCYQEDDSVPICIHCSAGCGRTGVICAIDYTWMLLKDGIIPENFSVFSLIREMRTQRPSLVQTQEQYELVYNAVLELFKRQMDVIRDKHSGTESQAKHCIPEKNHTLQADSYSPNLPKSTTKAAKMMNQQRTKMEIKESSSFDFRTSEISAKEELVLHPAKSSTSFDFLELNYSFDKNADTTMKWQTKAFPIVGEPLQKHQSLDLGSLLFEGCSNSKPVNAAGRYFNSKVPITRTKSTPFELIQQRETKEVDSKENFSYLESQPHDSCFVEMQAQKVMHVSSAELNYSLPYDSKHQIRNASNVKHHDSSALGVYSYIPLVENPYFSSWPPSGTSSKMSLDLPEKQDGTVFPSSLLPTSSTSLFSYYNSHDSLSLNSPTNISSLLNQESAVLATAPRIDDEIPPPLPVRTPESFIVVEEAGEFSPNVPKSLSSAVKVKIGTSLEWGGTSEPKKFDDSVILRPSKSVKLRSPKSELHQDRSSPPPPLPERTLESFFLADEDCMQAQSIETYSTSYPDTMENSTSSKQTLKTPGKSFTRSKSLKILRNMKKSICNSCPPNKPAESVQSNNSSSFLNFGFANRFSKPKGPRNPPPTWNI
Chain of Dual specificity protein phosphatase 6 (Q64346 whole entry): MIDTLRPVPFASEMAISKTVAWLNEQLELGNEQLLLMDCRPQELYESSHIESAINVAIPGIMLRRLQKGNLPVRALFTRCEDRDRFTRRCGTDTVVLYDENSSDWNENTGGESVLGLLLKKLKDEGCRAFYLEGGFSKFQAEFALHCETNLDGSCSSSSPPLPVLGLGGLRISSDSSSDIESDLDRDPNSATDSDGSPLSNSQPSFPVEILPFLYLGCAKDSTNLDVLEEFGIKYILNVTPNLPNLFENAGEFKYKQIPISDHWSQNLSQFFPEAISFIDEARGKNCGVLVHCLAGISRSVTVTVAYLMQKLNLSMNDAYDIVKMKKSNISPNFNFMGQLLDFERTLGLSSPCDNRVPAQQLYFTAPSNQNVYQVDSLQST
Chain of Lysine-specific demethylase 4A (O75164 whole entry): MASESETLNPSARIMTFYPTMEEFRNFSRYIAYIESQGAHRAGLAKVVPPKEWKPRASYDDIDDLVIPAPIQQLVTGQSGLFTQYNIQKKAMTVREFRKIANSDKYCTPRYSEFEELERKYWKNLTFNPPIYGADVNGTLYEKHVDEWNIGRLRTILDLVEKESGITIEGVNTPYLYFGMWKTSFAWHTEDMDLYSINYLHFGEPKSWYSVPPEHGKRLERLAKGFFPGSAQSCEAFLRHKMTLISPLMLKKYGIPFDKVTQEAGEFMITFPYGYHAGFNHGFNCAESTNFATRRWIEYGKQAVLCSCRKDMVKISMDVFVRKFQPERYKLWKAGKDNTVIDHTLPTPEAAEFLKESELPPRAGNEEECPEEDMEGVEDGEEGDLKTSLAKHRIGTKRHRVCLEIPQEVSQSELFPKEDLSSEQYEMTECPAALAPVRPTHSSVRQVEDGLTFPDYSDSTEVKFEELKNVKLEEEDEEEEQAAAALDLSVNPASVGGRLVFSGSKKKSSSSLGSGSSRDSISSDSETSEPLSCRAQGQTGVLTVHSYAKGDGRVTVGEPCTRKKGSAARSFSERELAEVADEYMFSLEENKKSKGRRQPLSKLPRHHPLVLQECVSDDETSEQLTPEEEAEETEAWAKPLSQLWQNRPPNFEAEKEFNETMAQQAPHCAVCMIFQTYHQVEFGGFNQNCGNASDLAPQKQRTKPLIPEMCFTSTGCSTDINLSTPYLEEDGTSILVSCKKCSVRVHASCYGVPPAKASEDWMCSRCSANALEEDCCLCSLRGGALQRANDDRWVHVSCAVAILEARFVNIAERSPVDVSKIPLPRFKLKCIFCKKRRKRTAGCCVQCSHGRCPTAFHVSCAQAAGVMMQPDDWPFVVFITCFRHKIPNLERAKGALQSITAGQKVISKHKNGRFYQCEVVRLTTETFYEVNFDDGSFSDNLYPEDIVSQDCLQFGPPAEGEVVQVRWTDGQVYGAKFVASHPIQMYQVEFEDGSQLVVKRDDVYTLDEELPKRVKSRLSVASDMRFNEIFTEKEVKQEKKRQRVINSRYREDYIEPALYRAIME
Chain of Phospholipase D2 (O14939 whole entry): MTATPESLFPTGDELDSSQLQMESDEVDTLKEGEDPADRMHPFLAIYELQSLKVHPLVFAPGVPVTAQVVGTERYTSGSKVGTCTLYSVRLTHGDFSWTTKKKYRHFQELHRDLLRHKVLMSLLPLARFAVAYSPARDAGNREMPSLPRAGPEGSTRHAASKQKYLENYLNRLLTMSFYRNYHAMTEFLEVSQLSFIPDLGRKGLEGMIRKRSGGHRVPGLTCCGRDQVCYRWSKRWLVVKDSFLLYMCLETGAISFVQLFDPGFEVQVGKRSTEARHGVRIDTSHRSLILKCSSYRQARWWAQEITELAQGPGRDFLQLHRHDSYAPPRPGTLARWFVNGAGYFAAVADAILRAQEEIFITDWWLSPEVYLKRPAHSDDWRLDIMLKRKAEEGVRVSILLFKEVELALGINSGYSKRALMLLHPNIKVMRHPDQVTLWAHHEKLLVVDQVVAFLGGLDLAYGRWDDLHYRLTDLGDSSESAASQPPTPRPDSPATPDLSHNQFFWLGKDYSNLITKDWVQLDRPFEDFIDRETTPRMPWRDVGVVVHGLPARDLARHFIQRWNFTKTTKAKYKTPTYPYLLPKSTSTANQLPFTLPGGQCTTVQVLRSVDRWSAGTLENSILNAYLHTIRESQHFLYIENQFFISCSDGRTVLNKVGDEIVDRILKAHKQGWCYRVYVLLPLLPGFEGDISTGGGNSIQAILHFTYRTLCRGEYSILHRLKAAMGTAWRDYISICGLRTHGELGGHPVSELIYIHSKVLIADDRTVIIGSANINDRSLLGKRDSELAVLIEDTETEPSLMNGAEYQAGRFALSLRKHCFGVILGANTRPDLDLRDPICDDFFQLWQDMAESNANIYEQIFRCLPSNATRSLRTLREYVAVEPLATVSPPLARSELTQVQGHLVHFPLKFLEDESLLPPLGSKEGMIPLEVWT
Chain of Tyrosine-protein phosphatase non-receptor type 12 (Q05209 whole entry): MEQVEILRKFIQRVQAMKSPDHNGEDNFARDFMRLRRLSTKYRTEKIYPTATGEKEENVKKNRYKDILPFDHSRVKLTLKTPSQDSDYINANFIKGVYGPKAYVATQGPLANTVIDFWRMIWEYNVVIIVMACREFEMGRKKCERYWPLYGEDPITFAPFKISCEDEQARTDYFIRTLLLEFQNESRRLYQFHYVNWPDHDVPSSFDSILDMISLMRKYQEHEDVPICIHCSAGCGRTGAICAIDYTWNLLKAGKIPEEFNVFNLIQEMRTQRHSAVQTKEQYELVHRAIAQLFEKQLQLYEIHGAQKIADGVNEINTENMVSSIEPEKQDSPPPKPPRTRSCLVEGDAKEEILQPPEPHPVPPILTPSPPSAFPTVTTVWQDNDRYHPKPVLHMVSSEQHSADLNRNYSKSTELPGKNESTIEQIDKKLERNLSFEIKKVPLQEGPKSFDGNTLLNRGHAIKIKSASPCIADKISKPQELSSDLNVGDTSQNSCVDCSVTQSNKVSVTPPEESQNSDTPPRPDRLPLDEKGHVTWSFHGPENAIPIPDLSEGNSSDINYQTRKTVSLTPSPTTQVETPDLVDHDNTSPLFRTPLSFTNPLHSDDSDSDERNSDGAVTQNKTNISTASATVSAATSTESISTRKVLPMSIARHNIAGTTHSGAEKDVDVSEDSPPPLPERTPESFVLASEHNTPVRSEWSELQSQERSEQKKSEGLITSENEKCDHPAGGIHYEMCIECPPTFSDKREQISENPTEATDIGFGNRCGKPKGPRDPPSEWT
Chain of Melanocortin receptor 4 (P32245 whole entry): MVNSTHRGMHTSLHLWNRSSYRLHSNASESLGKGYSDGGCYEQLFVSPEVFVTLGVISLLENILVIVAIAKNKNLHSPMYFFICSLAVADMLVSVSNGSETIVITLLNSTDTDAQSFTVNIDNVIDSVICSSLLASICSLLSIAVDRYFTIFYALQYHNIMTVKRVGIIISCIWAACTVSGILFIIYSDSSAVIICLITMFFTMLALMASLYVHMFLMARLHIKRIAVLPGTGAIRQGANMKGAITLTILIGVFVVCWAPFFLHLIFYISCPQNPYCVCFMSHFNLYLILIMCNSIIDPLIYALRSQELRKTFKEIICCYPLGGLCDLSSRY

C#CC(=O)N(c1ccc(OC)c(OC)c1)C(C(=O)NC1CCCC1)c1cccs1 (configuration not stated)
inconclusive: EC50 [3] 0.171 µM | EC50 [9] 5.23 µM
inactive: IC50 [11] > 64.6 µM | IC50 [15] 73 µM
active: IC50 [1] 2.51 µM | AC50 [2] 2.4 µM | EC50 [4] 7.04 µM | AC50 [5] 3.31 µM | IC50 [6] 0.26 µM | AC50 [7] 3.32 µM | AC50 [8] 14.3 µM | AC50 [10] 3.18 µM | AC50 [12] 0.651 µM | AC50 [13] < 0.195 µM | EC50 [14] 3.54 µM | AC50 [16] < 0.195 µM | AC50 [17] 5.92 µM

CCOC(=O)CCCCCC(=O)Nc1ccc2c(c1)CC(=O)N([C@@H](C)CO)C[C@H](C)[C@@H](CN(C)C(=O)Nc1ccc3c(c1)OCO3)O2
inactive: AC50 [18] > 60 µM

CCOC(=O)COc1c(Cl)cc(/C=C2/S/C(=N/c3ccc(F)cc3)NC2=O)cc1OCC
inactive: IC50 [21] > 100 µM
active: IC50 [19] 74.8 µM | IC50 [20] 1.4 µM | IC50 [22] 54.2 µM | IC50 [23] 10.5 µM | IC50 [24] 9.35 µM | IC50 [25] 66.4 µM

Cc1cccc(C(=O)N[C@@H](C)CN2CCC3(CC2)C(=O)NCN3c2ccccc2)c1
active: IC50 [26] 20 µM

Cc1cc(NC(=O)c2ccccc2Cl)ccc1NC(=O)CSc1nnc(-c2cccs2)n1C
active: IC50 [27] 25.3 µM
